Laboratory results as given in US12403135B2, “4H-pyrrolo[3,2-c]pyridin-4-one derivatives” (Bayer Aktiengesellschaft, priority 2019, dated 2025).

Columns and labels:
Format in all cases: cell-based
[1] = target: Ba/F3-ERBB2-A775_G776insYVMA cells (Homo sapiens, UniProt P04626, DUP772-775, cells depend on it); assay: BA/F3 (ERBB2 A775_G776 insYVMA) proliferation; conditions: Table 12; read-out: BA/F3 (ERBB2 A775_G776 insYVMA) IC50
Protocol: (§1) Plates were incubated at 37° C. for 48 h. Retrovirus was harvested by filtering the media supernatant through a 0.45 μm filter.
(§2) Ba/F3 cells purchased from DSMZ were grown in RPMI+10% FBS+10 ng/mL IL-3 and infected with filtered retroviral supernatant at a 1:2 dilution. Polybrene was added to a concentration of 8 μg/mL, plates were spun for 90 min, and incubated overnight at 37° C. 2 μg/mL puromycin was added to the infected cells 24 h after infection and cells were continually grown in the presence of puromycin and 10 ng/mL IL-3. Following stably expressing Ba/F3 cell lines were generated: Ba/F3-EGFR-V769_D770 insASV, Ba/F3-EGFR-D770_N771 insNPG, Ba/F3-EGFR-N771_P772 insH, Ba/F3-EGFR-H773_V774 insNPH, Ba/F3-EGFR-D770_N771 insSVD C797S, Ba/F3-EGFR-E746_A750del C797S, Ba/F3-EGFR-L858R C797S, Ba/F3-EGFR L861Q and Ba/F3-ERBB2-A775_G776insYVMA (Ba/F3-vector-control).

[2] = tested on: Ba/F3-EGFR-E746_A750del C797S cells; assay: BA/F3 (EGFR E746_A750del C797S) proliferation, acquired resistance; conditions: Table 11, acquired resistance space
Protocol: as §1, §2

Ba/F3-EGFR L861Q cells = assay: BA/F3 (EGFR L861Q) proliferation, uncommon EGFR mutation; conditions: Table 10, classical activating and uncommon EGFR mutations
Protocol: as §1, §2

[3] = target: Ba/F3-EGFR-V769_D770 insASV cells (Homo sapiens, UniProt P00533, DUP767-769, cells depend on it); assay: BA/F3 (ASV) proliferation, EGFR Exon20 insertion mutation; conditions: Table 9; EGFR Exon20 insertion mutations; read-out: BA/F3 (ASV) IC50
Protocol: as §1, §2

[4] = tested on: Ba/F3-EGFR-L858R C797S cells; assay: BA/F3 (EGFR L858R C797S) proliferation, acquired resistance; conditions: Table 11, acquired resistance space
Protocol: as §1, §2

[5] = tested on: Ba/F3-EGFR-D770_N771 insSVD C797S cells; assay: BA/F3 (EGFR D770_N771 insSVD C797S) proliferation, acquired resistance; conditions: Ba/F3 EGFR-D770-N771ins_SVD; Table 11; acquired resistance space
Protocol: as §1, §2

PC9 cells (EGFRex19del) = assay: PC9 cell proliferation, Cell Titer Glo, 72 h
Protocol: (§3) PC9 cells were purchased from ATCC. 400 PC9 cells per well were seeded in growth medium (DMEM, 10% FCS) in a 384-well plate (CORNING #3571). Seed reference plate for time zero determination on the same day. All plates were incubated overnight at 37° C. After 24 hours, test compound were added in 7-step dilution using HP Compound printer and incubated at 37° C. for 72 h. After 3 days, 30 μL/well CTG solution (Promega Cell Titer Glo solution; catalog #G755B and G756B) were added to each well, incubated for 30 minutes and the plate were read on PheraStar. Proliferation is calculated after subtracting time zero luminescence values from day 4 values and comparing to untreated wells. The IC50 values were determined using the four parameter fit.

[6] = target: Ba/F3-EGFR-D770_N771 insNPG cells (Homo sapiens, UniProt P00533, INS772GNP, cells depend on it); assay: BA/F3 (insNPG) proliferation, EGFR Exon20 insertion mutation; conditions: Table 9; EGFR Exon20 insertion mutations; read-out: BA/F3 (insNPG) IC50
Protocol: as §1, §2

[7] = tested on: Ba/F3-EGFR-delLREA cells (EGFR del19/delLREA (746-750), E746_A750del); assay: BA/F3 EGFR del19/delLREA (746-750) (E746_A750del) cell survival assay, Cell Titer-Glo; conditions: Table 10, classical activating and uncommon EGFR mutations, read-out: BA/F3 (EGFR E746_A750del) IC50
Protocol: as §1
(§4) Ba/F3 cells purchased from DSMZ were grown in RPMI+10% FBS+10 ng/mL IL-3 and infected with filtered retroviral supernatant at a 1:2 dilution. Polybrene was added to a concentration of 8 μg/mL, plates were spun for 90 min, and incubated overnight at 37° C. 2 μg/mL puromycin was added to the infected cells 24 h after infection and cells were continually grown in the presence of puromycin and 10 ng/mL IL-3. Following stably expressing Ba/F3 cell lines were generated: Ba/F3-EGFR-L858R, Ba/F3-EGFR-delLREA, (Ba/F3-vector-control).
(§5) For cell survival assays, Ba/F3 cells were grown to a density of 1-2 million cells per mL, spun down and resuspended in media without IL-3, and replated at a concentration 200,000-500,000 cells per mL. The cells ectopically expressing pBABEpuro empty vector were plated with 10 ng/mL IL-3.
(§6) 2 days later, cells were plated in 50 μL in a 384 well plate at a concentration of 4000 cells per well for cells assayed in the absence of IL-3 and 2000 cells per well for cells (pBABE puro empty vector) assayed in the presence of IL-3. 100 nL of compound was added to each well using a 100 nL pin head, and plates were incubated at 37° C. for 48 h.
(§7) Cell viability was measured by adding 20 μL of Cell Titer-Glo Luminescent Cell Viability Reagent diluted 1:3 in PBS. Plates were sealed with Perkin Elmer Top-Seal, inverted several times to mix, and immediately centrifuged at 1000 rpm for 2 min. Plates were incubated in low light conditions for 8-10 min and luminescence was measured.

Ba/F3-EGFR-L858R cells = Ba/F3-EGFR-L858R cells (Homo sapiens, UniProt P00533, L858R, cells depend on it); assay: BA/F3 EGFR L858R cell survival assay, Cell Titer-Glo; conditions: Table 10; classical activating and uncommon EGFR mutations; read-out: BA/F3 (EGFR L858R) IC50
Protocol: as §1, §4, §5, §6, §7

[8] = tested on: HCC-827 cells (EGFRex19del); assay: HCC-827 cell proliferation, Cell Titer Glo, 72 h; conditions: Homo sapiens
Protocol: as §3, with “HCC-827 cells” for “PC9 cells”, “[…]” for “400 PC9”, “medium (RPMI1640,” for “medium (DMEM,”, “wells.” for “wells. The IC50 values were determined using the four parameter fit.”
The IC50 values were determined using the four parameter fit.

[9] = Homo sapiens, PC-9, 72 h, Table 12, several values per example
[10] = HCC827, Table 12, several values per example
[11] = Homo sapiens, PC-9, Table 12, several values per example

Ba/F3-ERBB2-A775_G776insYVMA cells, sequence (P04626 with tags, fused parts or gaps DUP772-775): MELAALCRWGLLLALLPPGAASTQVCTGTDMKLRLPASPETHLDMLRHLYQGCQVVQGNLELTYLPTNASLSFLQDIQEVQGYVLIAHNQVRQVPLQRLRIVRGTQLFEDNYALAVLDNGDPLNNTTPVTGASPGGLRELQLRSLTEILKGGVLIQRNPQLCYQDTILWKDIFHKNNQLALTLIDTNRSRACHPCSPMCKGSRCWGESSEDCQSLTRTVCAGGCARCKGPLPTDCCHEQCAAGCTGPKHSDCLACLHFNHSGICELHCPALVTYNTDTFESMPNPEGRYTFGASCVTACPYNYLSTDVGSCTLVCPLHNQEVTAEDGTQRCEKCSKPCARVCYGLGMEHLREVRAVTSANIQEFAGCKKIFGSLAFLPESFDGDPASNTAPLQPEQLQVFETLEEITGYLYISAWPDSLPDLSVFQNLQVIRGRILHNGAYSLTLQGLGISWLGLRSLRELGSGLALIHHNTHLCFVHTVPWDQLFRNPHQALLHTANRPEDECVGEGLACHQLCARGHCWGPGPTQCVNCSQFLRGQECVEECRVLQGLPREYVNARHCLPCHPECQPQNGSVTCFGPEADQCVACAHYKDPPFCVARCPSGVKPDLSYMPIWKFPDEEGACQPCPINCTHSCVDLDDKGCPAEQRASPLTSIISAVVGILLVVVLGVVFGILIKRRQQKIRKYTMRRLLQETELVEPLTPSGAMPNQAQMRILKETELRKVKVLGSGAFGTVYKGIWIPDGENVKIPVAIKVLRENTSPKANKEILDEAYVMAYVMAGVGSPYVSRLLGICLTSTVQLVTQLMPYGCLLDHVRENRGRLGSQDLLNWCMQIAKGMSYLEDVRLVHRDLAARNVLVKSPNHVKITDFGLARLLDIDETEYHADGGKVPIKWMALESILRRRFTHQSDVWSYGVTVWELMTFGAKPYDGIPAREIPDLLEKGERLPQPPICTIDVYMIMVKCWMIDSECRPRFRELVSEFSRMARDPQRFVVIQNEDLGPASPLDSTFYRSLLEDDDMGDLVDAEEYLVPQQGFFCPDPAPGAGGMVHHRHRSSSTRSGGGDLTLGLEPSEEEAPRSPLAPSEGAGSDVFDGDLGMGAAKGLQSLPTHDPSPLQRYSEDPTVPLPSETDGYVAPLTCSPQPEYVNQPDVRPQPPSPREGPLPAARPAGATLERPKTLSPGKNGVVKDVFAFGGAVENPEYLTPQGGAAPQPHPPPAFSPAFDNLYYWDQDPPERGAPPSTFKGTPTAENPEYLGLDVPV
Ba/F3-EGFR-D770_N771 insNPG cells, sequence (P00533 with tags, fused parts or gaps INS772GNP): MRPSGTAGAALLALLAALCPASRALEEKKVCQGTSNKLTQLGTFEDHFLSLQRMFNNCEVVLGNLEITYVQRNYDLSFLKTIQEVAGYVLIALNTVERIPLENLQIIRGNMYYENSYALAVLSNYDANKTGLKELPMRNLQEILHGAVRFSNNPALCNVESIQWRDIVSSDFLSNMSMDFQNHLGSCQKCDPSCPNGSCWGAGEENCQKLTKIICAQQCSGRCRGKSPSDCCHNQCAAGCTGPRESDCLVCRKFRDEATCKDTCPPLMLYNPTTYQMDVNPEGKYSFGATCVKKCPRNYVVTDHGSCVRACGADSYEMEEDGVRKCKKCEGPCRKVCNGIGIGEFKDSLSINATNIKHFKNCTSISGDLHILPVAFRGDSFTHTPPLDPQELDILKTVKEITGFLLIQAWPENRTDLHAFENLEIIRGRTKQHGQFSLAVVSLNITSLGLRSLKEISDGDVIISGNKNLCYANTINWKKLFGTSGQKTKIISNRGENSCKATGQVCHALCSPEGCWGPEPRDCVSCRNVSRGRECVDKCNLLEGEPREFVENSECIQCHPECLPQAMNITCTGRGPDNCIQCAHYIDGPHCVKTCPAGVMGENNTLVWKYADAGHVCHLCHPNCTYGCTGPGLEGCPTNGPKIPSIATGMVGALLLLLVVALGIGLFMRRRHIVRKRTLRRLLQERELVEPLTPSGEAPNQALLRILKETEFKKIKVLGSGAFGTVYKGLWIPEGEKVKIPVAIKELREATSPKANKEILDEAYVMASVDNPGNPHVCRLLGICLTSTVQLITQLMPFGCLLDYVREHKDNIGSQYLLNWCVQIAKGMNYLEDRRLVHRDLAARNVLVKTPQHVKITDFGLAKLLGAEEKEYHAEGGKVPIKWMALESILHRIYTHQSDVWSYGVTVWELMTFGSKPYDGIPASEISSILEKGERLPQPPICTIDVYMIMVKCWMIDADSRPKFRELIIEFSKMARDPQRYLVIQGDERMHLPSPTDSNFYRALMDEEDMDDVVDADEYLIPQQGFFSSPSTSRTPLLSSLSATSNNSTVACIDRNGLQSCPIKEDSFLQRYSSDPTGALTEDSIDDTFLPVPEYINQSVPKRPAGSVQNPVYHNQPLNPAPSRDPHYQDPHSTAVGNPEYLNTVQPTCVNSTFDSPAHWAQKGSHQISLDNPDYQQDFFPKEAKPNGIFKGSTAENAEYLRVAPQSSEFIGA
Ba/F3-EGFR-V769_D770 insASV cells, sequence (P00533 with tags, fused parts or gaps DUP767-769): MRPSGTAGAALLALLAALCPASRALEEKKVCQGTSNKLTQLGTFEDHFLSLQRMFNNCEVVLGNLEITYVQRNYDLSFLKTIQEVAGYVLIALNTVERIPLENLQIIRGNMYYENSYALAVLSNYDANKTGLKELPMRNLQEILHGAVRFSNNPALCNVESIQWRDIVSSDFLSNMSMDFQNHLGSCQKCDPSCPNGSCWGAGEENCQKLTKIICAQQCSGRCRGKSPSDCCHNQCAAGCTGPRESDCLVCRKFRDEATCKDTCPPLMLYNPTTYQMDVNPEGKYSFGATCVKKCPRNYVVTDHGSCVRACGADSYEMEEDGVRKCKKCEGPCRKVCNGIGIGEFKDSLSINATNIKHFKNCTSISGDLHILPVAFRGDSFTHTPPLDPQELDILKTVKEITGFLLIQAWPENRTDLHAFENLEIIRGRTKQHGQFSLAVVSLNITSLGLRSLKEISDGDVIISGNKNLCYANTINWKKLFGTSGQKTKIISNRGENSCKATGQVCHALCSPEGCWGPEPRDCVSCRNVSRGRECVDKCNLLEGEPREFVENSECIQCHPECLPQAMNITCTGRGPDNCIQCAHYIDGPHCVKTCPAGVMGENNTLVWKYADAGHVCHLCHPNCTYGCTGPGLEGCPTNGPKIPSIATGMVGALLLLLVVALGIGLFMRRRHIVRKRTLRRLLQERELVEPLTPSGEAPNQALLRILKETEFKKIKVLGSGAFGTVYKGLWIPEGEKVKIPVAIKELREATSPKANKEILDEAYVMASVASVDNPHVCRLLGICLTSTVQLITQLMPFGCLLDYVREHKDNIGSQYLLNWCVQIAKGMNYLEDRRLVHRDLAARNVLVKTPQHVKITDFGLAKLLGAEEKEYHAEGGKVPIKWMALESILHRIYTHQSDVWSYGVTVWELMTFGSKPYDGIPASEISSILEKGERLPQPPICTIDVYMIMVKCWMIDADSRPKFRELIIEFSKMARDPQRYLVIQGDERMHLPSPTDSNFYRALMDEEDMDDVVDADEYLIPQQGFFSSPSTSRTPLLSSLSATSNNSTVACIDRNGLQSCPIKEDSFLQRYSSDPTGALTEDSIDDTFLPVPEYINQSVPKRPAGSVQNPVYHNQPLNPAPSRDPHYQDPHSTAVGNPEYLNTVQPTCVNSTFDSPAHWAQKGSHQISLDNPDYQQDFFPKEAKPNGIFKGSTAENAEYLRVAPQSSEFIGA
Ba/F3-EGFR-L858R cells, sequence (P00533 whole entry L858R): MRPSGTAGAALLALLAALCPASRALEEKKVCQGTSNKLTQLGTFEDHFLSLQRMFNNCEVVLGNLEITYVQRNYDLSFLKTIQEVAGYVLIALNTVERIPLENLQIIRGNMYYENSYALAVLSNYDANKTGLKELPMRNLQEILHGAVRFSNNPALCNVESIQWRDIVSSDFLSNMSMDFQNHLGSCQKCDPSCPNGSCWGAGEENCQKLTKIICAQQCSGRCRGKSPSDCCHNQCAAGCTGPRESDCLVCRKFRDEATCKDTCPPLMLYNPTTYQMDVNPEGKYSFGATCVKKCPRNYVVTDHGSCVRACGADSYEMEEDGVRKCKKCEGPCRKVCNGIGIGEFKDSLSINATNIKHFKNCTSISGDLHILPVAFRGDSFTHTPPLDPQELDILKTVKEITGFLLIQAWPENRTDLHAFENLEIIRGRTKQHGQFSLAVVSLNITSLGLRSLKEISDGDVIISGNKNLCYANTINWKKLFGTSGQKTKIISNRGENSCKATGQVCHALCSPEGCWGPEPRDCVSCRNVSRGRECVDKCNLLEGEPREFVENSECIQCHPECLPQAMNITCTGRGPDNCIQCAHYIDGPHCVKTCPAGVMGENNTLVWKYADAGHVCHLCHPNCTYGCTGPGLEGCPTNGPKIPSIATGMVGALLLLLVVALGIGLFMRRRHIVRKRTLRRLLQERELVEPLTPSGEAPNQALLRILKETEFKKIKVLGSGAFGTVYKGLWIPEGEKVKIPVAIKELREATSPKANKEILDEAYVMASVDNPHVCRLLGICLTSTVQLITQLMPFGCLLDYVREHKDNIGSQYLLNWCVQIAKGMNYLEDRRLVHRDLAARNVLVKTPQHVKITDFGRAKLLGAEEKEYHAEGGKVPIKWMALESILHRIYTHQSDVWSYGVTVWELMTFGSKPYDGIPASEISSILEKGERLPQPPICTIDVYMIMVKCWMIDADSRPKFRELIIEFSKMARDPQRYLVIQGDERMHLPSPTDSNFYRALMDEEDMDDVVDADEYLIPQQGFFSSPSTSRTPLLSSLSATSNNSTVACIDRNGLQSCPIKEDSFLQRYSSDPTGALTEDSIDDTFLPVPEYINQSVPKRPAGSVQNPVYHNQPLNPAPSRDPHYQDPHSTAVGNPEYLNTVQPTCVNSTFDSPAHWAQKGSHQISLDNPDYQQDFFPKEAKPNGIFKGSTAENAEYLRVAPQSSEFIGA

Row | SMILES | GI50 [1] [nM] | IC50 [2] [nM] | IC50 (Ba/F3-EGFR L861Q cells) [nM] | GI50 [3] [nM] | IC50 [4] [nM] | IC50 [5] [nM] | IC50 (PC9 cells (EGFRex19del); [9]) [nM] | IC50 (PC9 cells (EGFRex19del); Table 12, several values per example) [nM] | GI50 [6] [nM] | IC50 [7] [nM] | GI50 (Ba/F3-EGFR-L858R cells) [nM] | IC50 [8, 10] [nM] | IC50 (PC9 cells (EGFRex19del); [11]) [nM] | IC50 ([8]; HCC827, 72 h, Table 12, several values per example) [nM]
1 | Cc1c(F)cccc1Nc1c(-c2ccncc2OC[C@@H]2CCCN2C)[nH]c2c1C(=O)NCC2 [Example 49, 3-(3-fluoro-2-methylanilino)-2-(3-{[(2S)-1-methylpyrrolidin-2-yl]methoxy}pyridin-4-yl)-1,5,6,7-tetrahydro-4H-pyrrolo[3,2-c]pyridin-4-one] | 231 | 3.01 | 177 | 284 | 7.83 | 198 | < 30 | 51.3 | 115 | 11.6 | 22.7 |  |  | 
2 | COc1c(Cl)cccc1Nc1c(-c2ccncc2OC[C@@H]2CCCO2)[nH]c2c1C(=O)NCC2 [Example 66, 3-(3-chloro-2-methoxyanilino)-2-(3-{[(2S)-oxolan-2-yl]methoxy}pyridin-4-yl)-1,5,6,7-tetrahydro-4H-pyrrolo[3,2-c]pyridin-4-one] | 6.62 | 0.288 | 9.81 | 6.4 | 1.22 | 15.3 |  |  | 5.57 | < 0.15 | 0.685 | < 3 | 0.944 | 
3 | COc1c(Cl)cccc1Nc1c(-c2ccncc2OC[C@H]2CCCO2)[nH]c2c1C(=O)NCC2 [Example 67, 3-(3-chloro-2-methoxyanilino)-2-(3-{[(2R)-oxolan-2-yl]methoxy}pyridin-4-yl)-1,5,6,7-tetrahydro-4H-pyrrolo[3,2-c]pyridin-4-one] | 11.5 | 0.387 | 19 | 12.8 | 1.82 | 23.8 |  |  | 13.1 | 0.643 | 1.48 | < 3 | 1.77 | 
4 | COc1c(F)cccc1Nc1c(-c2ccncc2OC[C@@H](C)OC)[nH]c2c1C(=O)NCC2 [Example 92, 3-(3-fluoro-2-methoxyanilino)-2-{3-[(2R)-2-methoxypropoxy]pyridin-4-yl}-1,5,6,7-tetrahydro-4H-pyrrolo[3,2-c]pyridin-4-one] | 14.9 | 0.363 | 38 | 17.2 | 1.61 | 25.6 | 3.27 |  | 13.9 | 0.375 | 1.31 |  |  | < 3
